Results: article PMC8894198, “Biosynthetic Microcin J25 Exerts Strong Antibacterial, Anti-Inflammatory Activities, Low Cytotoxicity Without Increasing Drug-Resistance to Bacteria Target” (Frontiers in Immunology, 2022)
Converted amounts (≈) assume the structure as drawn. “And” between values parts separate entries of the source, which are not always exact repeats. Equal entries are not always repeated. Where a SMILES comes first, the peptide text is derived from it. Bridges are numbered along the chain shown (N, C = ends).

Tests used:
Format in all cases: cell-based
[1] = test system: E. coli 521ZQE; settings: source pig tissue, three independent experiments
Procedure: (§1) The minimum inhibitory concentration (MIC) refers to the lowest concentration that can produce a significant hindrance to bacterial growth in a drug sensitivity test by adopting a broth dilution, with certain refinements and modifications based on the previous description ([25], [26]). In short, MccJ25 was dissolved in sterilized distilled water (SDW), serial 2-fold dilutions were prepared in Mueller-Hinton broth (MHB) through a 96-well microtiter plate, and the final concentration of MccJ25 was maintained in the range of 0.003125 to 256 μg/mL. Then, 2 μL of standard and clinically relevant overnight broth cultures of bacteria were inoculated into each well at a concentration of 5 × 10^6 CFU/mL. Microtiter plates were incubated at 37°C for one full day. Two groups were set up: positive (medium with inoculum) and negative (medium only) controls. The minimum bactericidal concentration (MBC) was measured in LB medium and refers to the first drug dilution value at which the initial bacterial concentration was reduced by 99.99%. The final analysis was determined by the results of three replicated and independent experiments. To further assess and clarify the antimicrobial activity of MccJ25, the protective ability against E. coli adhesion, live/dead assay, and killing curve were performed, the detailed methods were provided in Supplementary Materials .

[2] = test system: E. coli 987P
Procedure: as §1

[3] = test system: E. coli AZ1; settings: source pig tissue
Procedure: as §1

[4] = test system: E. coli BRO 134; settings: source broiler stool
Procedure: as §1

[5] = test system: E. coli BRO 477; settings: source broiler stool
Procedure: as §1

[6] = test system: E. coli CATT921A-1; settings: source mastitis pathogens
Procedure: as §1

[7] = test system: E. coli CVCC1522
Procedure: as §1

[8] = test system: E. coli CVCC1543
Procedure: as §1

[9] = test system: E. coli K88
Procedure: as §1

[10] = test system: E. coli K99
Procedure: as §1

[11] = test system: E. coli LKFZ F2; settings: source pig stool
Procedure: as §1

[12] = test system: E. coli SWI 437; settings: source pig stool
Procedure: as §1

[13] = test system: E. coli SWI 535; settings: source pig tissue
Procedure: as §1

[14] = test system: E. coli WWE921A-2; settings: source pig tissue
Procedure: as §1

[15] = test system: Salmonella CATT LX1; settings: source mastitis pathogens
Procedure: as §1

[16] = test system: Salmonella CATT LX2; settings: source mastitis pathogens
Procedure: as §1

[17] = test system: Salmonella CATT LX5; settings: source mastitis pathogens
Procedure: as §1

[18] = test system: Salmonella CATT LX9; settings: source mastitis pathogens
Procedure: as §1

[19] = test system: Salmonella CATT W14; settings: source mastitis pathogens
Procedure: as §1

[20] = test system: E. coli K88; assay: MIC variability (cross-resistance) after 5 days at sub-MIC; settings: bacterial cells treated with MccJ25 (0.25 × MIC) for 5 days
Procedure: A 1:100 dilution of the bacteria was performed daily in the above MHB. Aliquots of the culture medium were used daily for 5 days thereafter to determine the MICs of ampicillin, tetracycline, aureomycin, and kanamycin. This study was performed based on our previous study ([29]).

[21] = LB medium, 99.99% reduction, three independent experiments
[22] = broth dilution in MHB, 37°C, one day, three independent experiments
[23] = broth dilution in MHB, 37°C, three independent experiments

`CC[C@H](C)[C@H](NC(=O)CNC(=O)[C@@H](NC(=O)[C@H](Cc1ccccc1)NC(=O)[C@H](Cc1ccc(O)cc1)NC(=O)[C@@H]1CCC(=O)NCC(=O)NCC(=O)N[C@@H](C)C(=O)NCC(=O)N[C@@H](Cc2c[nH]cn2)C(=O)N[C@@H](C(C)C)C(=O)N2CCC[C@H]2C(=O)N1)C(C)C)C(=O)NCC(=O)N[C@H](C(=O)N1CCC[C@H]1C(=O)N[C@H](C(=O)N[C@@H](CO)C(=O)N[C@@H](Cc1ccccc1)C(=O)N[C@@H](Cc1ccc(O)cc1)C(=O)NCC(=O)O)[C@@H](C)CC)[C@@H](C)O` [MccJ25, microcin J25] (GGAGHVPEYFVGIGTPISFYG-OH; lactam N-8 (inferred); C-terminus assumed) gave an MBC ([1]; LB medium, 99.99% reduction) of 2.000 µg/mL (≈ 0.949 µM), an MIC ([1]; broth dilution in MHB, 37°C) of 0.250 µg/mL (≈ 0.119 µM) and an MBC [2, 21] of 0.500 µg/mL (≈ 0.237 µM). The MIC [2, 22] was 0.030 µg/mL (≈ 0.0142 µM), the MIC/MBC ([2]; ratio) was 0.060 and the MBC [3, 21] was 1.000 µg/mL (≈ 0.475 µM). The MIC [3, 23] was 0.500 µg/mL (≈ 0.237 µM), the MIC/MBC ([3]; ratio) was 0.500 and the MBC [4, 21] was 2.000 µg/mL (≈ 0.949 µM). For the same compound, the MIC [4, 23] was 0.250 µg/mL (≈ 0.119 µM), the MIC/MBC ([4]; ratio) was 0.125 and the MBC [5, 21] was 1.000 µg/mL (≈ 0.475 µM). It also gave an MIC [5, 23] of 0.500 µg/mL (≈ 0.237 µM), an MIC/MBC ([5]; ratio) of 0.500 and an MBC [6, 21] of 2.000 µg/mL (≈ 0.949 µM). For the same compound, the MIC [6, 23] was 0.250 µg/mL (≈ 0.119 µM), the MIC/MBC ([6]; ratio) was 0.125 and the MBC [7, 21] was 0.500 µg/mL (≈ 0.237 µM). The MIC [7, 22] was 0.03 µg/mL and 0.030 µg/mL, the MIC/MBC ([7]; ratio) was 0.060 and the MBC [8, 21] was 0.250 µg/mL (≈ 0.119 µM). For the same compound, the MIC [8, 22] was 0.03 µg/mL and 0.030 µg/mL, the MIC/MBC ([8]; ratio) was 0.120 and the MBC [9, 21] was 0.500 µg/mL (≈ 0.237 µM). It also gave an MIC [9, 22] of 0.250 µg/mL (≈ 0.119 µM), an MIC/MBC ([9]; ratio) of 0.500 and an MBC [10, 21] of 0.250 µg/mL (≈ 0.119 µM). It also gave an MIC [10, 22] of 0.030 µg/mL (≈ 0.0142 µM), an MIC/MBC ([10]; ratio) of 0.120 and an MBC [11, 21] of 0.500 µg/mL (≈ 0.237 µM). The MIC [11, 23] was 0.250 µg/mL (≈ 0.119 µM), the MIC/MBC ([11]; ratio) was 0.500 and the MBC [12, 21] was 0.250 µg/mL (≈ 0.119 µM). The MIC [12, 23] was 0.030 µg/mL (≈ 0.0142 µM), the MIC/MBC ([12]; ratio) was 0.120 and the MBC [13, 21] was 2.000 µg/mL (≈ 0.949 µM). It also gave an MIC [13, 23] of 0.500 µg/mL (≈ 0.237 µM), an MIC/MBC ([13]; ratio) of 0.250 and an MBC [14, 21] of 2.000 µg/mL (≈ 0.949 µM). For the same compound, the MIC [14, 23] was 1.000 µg/mL (≈ 0.475 µM), the MIC/MBC ([14]; ratio) was 0.500 and the MBC [15, 21] was 0.250 µg/mL (≈ 0.119 µM). For the same compound, the MIC [15, 23] was 0.060 µg/mL (≈ 0.0285 µM), the MIC/MBC ([15]; ratio) was 0.240 and the MBC [16, 21] was 0.125 µg/mL (≈ 0.0593 µM). The MIC [16, 23] was 0.030 µg/mL (≈ 0.0142 µM), the MIC/MBC ([16]; ratio) was 0.240 and the MBC [17, 21] was 0.125 µg/mL (≈ 0.0593 µM). For the same compound, the MIC [17, 23] was 0.030 µg/mL (≈ 0.0142 µM), the MIC/MBC ([17]; ratio) was 0.240 and the MBC [18, 21] was 0.125 µg/mL (≈ 0.0593 µM). The MIC [18, 23] was 0.060 µg/mL (≈ 0.0285 µM), the MIC/MBC ([18]; ratio) was 0.480 and the MBC [19, 21] was 0.250 µg/mL (≈ 0.119 µM). For the same compound, the MIC [19, 23] was 0.060 µg/mL (≈ 0.0285 µM), the MIC/MBC ([19]; ratio) was 0.240 and the “change in the MICs of ciprofloxacin, ampicillin, tetracycline and kanamycin” value [20] was “no changes were observed”.
